In patent publication US20120122860A1, “SOLID FORMS OF SULFONAMIDES AND AMINO ACIDS” (Plexxikon, Inc., priority 2009, published 2012):
pIC50: −log10 of the molar value.

How the values were obtained:
B-Raf V600E = B-Raf V600E (Homo sapiens, UniProt P15056, V600E); experiment: Kinase activity assay, B-Raf V600E; assay type: biochemical; settings: read-out: activity toward kinase B-Raf V600E, IC50
B-Raf = B-Raf (Homo sapiens, UniProt P15056); experiment: Kinase activity assay, B-Raf; assay type: biochemical; settings: read-out: activity toward kinase B-Raf, IC50
Sequence of B-Raf (P15056 whole entry): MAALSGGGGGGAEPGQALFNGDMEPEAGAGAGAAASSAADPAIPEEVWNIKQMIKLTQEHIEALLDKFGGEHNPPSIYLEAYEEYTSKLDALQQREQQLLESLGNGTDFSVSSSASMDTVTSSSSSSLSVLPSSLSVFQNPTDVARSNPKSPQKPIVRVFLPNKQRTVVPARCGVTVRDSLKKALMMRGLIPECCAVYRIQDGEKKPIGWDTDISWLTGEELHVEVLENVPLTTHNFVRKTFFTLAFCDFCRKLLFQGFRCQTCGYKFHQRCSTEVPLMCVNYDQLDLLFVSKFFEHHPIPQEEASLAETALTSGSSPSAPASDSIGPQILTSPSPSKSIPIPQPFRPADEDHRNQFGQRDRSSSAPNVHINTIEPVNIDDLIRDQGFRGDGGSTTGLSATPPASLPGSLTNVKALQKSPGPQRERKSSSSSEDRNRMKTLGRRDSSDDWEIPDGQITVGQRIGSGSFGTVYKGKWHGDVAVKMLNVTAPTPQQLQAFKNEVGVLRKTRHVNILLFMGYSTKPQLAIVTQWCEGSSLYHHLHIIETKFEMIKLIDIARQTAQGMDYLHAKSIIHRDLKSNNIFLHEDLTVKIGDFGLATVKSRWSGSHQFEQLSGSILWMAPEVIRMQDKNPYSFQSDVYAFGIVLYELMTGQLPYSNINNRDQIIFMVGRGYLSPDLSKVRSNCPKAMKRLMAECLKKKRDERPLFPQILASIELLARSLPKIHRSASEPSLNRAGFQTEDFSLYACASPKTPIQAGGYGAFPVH

A-Raf = target: T1, A-Raf (Homo sapiens, UniProt P10398); experiment: Kinase activity assay, A-Raf
T1 sequence (P10398 1-606): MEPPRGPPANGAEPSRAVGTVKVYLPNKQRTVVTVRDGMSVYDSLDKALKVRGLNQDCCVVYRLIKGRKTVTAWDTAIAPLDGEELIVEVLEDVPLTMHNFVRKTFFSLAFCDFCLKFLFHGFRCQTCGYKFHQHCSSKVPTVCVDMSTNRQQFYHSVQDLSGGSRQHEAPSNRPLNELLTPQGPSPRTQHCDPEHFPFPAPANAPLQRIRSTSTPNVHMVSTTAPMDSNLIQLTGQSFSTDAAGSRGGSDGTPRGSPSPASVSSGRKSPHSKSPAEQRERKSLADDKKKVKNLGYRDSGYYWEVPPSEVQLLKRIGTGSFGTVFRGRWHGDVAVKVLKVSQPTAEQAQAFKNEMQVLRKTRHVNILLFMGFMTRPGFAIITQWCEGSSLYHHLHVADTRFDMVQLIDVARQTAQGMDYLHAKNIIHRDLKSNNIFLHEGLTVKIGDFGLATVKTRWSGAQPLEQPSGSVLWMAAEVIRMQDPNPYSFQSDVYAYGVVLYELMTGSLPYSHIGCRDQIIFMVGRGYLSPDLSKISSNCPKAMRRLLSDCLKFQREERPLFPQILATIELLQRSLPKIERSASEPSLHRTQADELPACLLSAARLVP

Src = Src (Homo sapiens, UniProt P12931); experiment: Kinase activity assay, Src
Sequence of Src (P12931 whole entry): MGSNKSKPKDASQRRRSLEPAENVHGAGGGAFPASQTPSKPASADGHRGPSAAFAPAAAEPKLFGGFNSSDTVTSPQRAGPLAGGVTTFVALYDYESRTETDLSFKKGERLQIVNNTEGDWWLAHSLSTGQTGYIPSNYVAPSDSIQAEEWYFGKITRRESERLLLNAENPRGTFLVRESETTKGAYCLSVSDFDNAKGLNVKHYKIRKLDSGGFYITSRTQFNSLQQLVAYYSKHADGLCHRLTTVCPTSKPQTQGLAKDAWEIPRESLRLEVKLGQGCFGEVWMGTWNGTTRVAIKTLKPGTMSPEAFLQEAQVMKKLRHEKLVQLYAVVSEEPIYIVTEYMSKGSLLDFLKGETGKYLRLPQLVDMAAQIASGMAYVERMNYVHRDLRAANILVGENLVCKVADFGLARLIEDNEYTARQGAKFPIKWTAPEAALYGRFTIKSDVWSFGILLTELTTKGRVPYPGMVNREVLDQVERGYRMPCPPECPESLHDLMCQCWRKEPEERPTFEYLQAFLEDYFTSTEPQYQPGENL

Fms = Fms (Homo sapiens, UniProt P07333); experiment: Kinase activity assay, Fms
C-Raf = C-Raf (Homo sapiens, UniProt P04049); experiment: Kinase activity assay, C-Raf
Sequence of C-Raf (P04049 whole entry): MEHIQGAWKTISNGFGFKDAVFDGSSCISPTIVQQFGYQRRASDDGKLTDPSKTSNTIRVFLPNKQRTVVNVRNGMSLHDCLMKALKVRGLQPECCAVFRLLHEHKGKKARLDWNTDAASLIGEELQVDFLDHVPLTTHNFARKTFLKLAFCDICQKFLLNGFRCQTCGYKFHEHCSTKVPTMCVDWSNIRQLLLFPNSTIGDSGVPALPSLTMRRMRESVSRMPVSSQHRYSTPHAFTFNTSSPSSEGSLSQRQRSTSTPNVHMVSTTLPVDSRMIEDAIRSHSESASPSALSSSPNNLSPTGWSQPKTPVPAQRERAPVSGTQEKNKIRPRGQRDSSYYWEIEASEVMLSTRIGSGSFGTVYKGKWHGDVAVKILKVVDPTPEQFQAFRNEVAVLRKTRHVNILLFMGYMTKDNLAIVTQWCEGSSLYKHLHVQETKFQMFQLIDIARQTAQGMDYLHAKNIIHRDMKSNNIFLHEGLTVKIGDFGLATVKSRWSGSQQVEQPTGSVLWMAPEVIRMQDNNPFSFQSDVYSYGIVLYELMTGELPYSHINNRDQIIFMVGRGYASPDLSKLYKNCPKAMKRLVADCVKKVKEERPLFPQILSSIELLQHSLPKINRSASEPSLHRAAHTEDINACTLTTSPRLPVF

Kit = Kit (Homo sapiens, UniProt P10721); experiment: Kinase activity assay, Kit
Kdr = Kdr (Homo sapiens, UniProt P35968); experiment: Kinase activity assay, Kdr
Sequence of Kdr (P35968 20-1356): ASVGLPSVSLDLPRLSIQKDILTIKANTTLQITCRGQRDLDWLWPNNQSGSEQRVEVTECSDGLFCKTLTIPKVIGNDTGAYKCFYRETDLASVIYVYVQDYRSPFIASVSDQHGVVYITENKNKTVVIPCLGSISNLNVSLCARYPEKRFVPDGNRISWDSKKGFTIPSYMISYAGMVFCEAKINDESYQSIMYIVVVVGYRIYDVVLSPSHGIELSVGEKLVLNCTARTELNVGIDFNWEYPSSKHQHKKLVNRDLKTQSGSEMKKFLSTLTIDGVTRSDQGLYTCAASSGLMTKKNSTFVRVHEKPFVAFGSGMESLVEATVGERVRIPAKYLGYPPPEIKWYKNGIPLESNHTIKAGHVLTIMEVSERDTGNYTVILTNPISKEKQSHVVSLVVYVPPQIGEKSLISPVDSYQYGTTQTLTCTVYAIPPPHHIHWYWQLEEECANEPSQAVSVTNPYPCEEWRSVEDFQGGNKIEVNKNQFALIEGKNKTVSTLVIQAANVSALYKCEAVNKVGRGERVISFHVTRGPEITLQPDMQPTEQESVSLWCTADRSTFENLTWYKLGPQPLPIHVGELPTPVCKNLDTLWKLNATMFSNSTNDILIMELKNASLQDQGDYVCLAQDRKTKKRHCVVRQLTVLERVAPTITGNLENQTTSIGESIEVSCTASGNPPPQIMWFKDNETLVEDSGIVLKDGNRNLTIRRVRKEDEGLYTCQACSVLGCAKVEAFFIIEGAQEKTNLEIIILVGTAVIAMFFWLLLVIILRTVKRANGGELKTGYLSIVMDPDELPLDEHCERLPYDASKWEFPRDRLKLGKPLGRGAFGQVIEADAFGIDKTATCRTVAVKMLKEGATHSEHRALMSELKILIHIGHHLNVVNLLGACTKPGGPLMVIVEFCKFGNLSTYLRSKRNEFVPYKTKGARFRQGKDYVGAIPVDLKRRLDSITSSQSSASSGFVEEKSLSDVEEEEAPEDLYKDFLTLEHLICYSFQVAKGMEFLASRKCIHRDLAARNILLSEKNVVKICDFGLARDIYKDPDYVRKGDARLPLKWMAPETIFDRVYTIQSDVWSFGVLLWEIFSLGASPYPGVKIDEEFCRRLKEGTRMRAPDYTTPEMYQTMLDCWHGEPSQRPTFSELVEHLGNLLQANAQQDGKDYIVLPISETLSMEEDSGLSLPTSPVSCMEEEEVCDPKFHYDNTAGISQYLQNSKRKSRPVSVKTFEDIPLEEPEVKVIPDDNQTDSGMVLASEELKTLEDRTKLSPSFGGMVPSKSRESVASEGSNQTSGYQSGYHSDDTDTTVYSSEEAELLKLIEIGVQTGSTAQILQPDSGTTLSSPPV

MAP4K4 = MAP4K4 (Homo sapiens, UniProt O95819); experiment: Kinase activity assay, MAP4K4
Sequence of MAP4K4 (O95819 whole entry): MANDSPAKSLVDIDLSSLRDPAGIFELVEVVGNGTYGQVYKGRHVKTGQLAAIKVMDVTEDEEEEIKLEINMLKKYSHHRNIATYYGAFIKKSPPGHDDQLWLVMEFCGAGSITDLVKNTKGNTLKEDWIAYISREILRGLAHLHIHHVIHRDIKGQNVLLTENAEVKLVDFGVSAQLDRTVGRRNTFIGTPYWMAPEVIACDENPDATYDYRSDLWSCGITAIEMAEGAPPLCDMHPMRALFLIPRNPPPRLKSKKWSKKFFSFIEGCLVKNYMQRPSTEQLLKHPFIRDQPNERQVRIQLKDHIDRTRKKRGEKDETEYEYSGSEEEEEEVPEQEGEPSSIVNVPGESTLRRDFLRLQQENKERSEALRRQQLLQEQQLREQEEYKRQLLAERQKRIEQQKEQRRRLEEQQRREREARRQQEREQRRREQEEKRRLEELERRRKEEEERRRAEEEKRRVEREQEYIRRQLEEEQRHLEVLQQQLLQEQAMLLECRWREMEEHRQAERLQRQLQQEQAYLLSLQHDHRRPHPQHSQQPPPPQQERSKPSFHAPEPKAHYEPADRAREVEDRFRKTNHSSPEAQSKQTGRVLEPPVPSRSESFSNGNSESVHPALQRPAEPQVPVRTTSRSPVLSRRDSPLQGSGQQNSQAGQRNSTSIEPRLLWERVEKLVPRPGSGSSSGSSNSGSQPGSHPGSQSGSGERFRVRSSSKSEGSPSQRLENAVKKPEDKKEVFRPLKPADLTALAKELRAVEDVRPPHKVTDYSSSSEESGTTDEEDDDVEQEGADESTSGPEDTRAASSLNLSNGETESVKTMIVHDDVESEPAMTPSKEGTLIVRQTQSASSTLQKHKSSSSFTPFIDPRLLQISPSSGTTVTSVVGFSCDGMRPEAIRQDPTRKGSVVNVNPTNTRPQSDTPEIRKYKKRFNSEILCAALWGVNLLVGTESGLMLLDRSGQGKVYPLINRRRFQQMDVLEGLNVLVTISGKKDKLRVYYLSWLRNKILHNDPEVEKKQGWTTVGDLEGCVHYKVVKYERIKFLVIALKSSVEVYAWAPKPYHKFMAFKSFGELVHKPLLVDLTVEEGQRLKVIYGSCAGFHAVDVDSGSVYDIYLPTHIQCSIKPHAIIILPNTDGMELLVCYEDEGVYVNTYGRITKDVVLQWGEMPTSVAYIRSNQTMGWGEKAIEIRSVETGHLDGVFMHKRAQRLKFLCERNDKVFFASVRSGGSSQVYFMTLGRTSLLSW

Sequence of B-Raf V600E (P15056 whole entry V600E): as the sequence (P15056 whole entry) above, with V600E counted along it

Row | Compound | pIC50 (B-Raf V600E) | pIC50 (B-Raf) | pIC50 (A-Raf) | pIC50 (Src) | pIC50 (Fms) | pIC50 (C-Raf) | pIC50 (Kit) | pIC50 (Kdr) | pIC50 (MAP4K4)
1 | O=C(c1c(F)ccc(NS(=O)(=O)c2cc(F)ccc2F)c1F)c1c[nH]c2ncc(Cl)cc12 [P-2002, N-[3-(5-Chloro-1H-pyrrolo[2,3-b]pyridine-3-carbonyl)-2,4-difluoro-phenyl]-2,5-difluoro-benzenesulfonamide] | ≥ 5.00 | ≥ 5.00 | ≥ 5.00 | ≥ 5.00 | ≥ 5.00 | ≥ 5.00 | ≥ 5.00 | ≥ 5.00 | ≥ 5.00
2 | COc1cnc2[nH]cc(C(=O)c3c(F)ccc(NS(=O)(=O)c4cc(F)ccc4F)c3F)c2c1 [P-2010, N-[2,4-Difluoro-3-(5-methoxy-1H-pyrrolo[2,3-b]pyridine-3-carbonyl)-phenyl]-2,5-difluoro-benzenesulfonamide] | ≥ 5.00 | ≥ 5.00 | ≥ 5.00 | ≥ 5.00 | ≥ 5.00 | ≥ 5.00 | ≥ 5.00 | ≥ 5.00 | ≥ 5.00
3 | Cc1cnc2[nH]cc(C(=O)c3c(F)ccc(NS(=O)(=O)c4cc(F)ccc4F)c3F)c2c1 [P-2015, N-[2,4-Difluoro-3-(5-methyl-1H-pyrrolo[2,3-b]pyridine-3-carbonyl)-phenyl]-2,5-difluoro-benzenesulfonamide] | ≥ 5.00 | ≥ 5.00 | ≥ 5.00 | ≥ 5.00 | ≥ 5.00 | ≥ 5.00 | ≥ 5.00 | ≥ 5.00 | ≥ 5.00
4 | O=C(c1c(F)ccc(NS(=O)(=O)c2ccccc2F)c1F)c1c[nH]c2nccc(Cl)c12 [P-2017, N-[3-(4-Chloro-1H-pyrrolo[2,3-b]pyridine-3-carbonyl)-2,4-difluoro-phenyl]-2-fluoro-benzenesulfonamide] | ≥ 5.00 | ≥ 5.00 | ≥ 5.00 | ≥ 5.00 | ≥ 5.00 | ≥ 5.00 | ≥ 5.00 | ≥ 5.00 | ≥ 5.00
5 | O=C(c1c(F)ccc(NS(=O)(=O)c2cc(F)ccc2F)c1F)c1c[nH]c2nccc(Cl)c12 [P-2018, N-[3-(4-Chloro-1H-pyrrolo[2,3-b]pyridine-3-carbonyl)-2,4-difluoro-phenyl]-2,5-difluoro-benzenesulfonamide] | ≥ 5.00 | ≥ 5.00 | ≥ 5.00 | ≥ 5.00 | ≥ 5.00 | ≥ 5.00 | ≥ 5.00 | ≥ 5.00 | ≥ 5.00
6 | CCCc1ccc(-c2cnc3[nH]cc(C(=O)c4c(F)ccc(NS(=O)(=O)CCC)c4F)c3c2)cn1 [P-2224, Propane-1-sulfonic acid {2,4-difluoro-3-[5-(6-propyl-pyridin-3-yl)-1H-pyrrolo[2,3-b]pyridine-3-carbonyl]-phenyl}-amide] | ≥ 5.00 | ≥ 5.00 | ≥ 5.00 | ≥ 5.00 | ≥ 5.00 | ≥ 5.00 | ≥ 5.00 | ≥ 5.00 | ≥ 5.00
7 | CCCS(=O)(=O)Nc1ccc(F)c(C(=O)c2c[nH]c3ncc(CCC(=O)OC)cc23)c1F [P-2230, 3-{3-[2,6-Difluoro-3-(propane-1-sulfonylamino)-benzoyl]-1H-pyrrolo[2,3-b]pyridin-5-yl}-propionic acid methyl ester] | ≥ 5.00 | ≥ 5.00 | ≥ 5.00 | ≥ 5.00 | ≥ 5.00 | ≥ 5.00 | ≥ 5.00 | ≥ 5.00 | ≥ 5.00
8 | CCCS(=O)(=O)Nc1ccc(F)c(C(=O)c2c[nH]c3ncc(-c4ccc(OCCN5CCOCC5)nc4)cc23)c1F [P-2232, Propane-1-sulfonic acid (2,4-difluoro-3-{5-[6-(2-morpholin-4-yl-ethoxy)-pyridin-3-yl]-1H-pyrrolo[2,3-b]pyridine-3-carbonyl}-phenyl)-amide] | ≥ 5.00 | ≥ 5.00 | ≥ 5.00 | ≥ 5.00 | ≥ 5.00 | ≥ 5.00 | ≥ 5.00 | ≥ 5.00 | ≥ 5.00
9 | CCCS(=O)(=O)Nc1ccc(F)c(C(=O)c2c[nH]c3ncc(-c4ccc(OCCN5CCCC5)nc4)cc23)c1F [P-2233, Propane-1-sulfonic acid (2,4-difluoro-3-{5-[6-(2-pyrrolidin-1-yl-ethoxy)-pyridin-3-yl]-1H-pyrrolo[2,3-b]pyridine-3-carbonyl}-phenyl)-amide] | ≥ 5.00 | ≥ 5.00 | ≥ 5.00 | ≥ 5.00 | ≥ 5.00 | ≥ 5.00 | ≥ 5.00 | ≥ 5.00 | ≥ 5.00

The next lines start with the values.

Row | pIC50 (B-Raf V600E) | pIC50 (B-Raf) | pIC50 (A-Raf) | pIC50 (Src) | pIC50 (Fms) | pIC50 (C-Raf) | pIC50 (Kit) | pIC50 (Kdr) | pIC50 (MAP4K4) | Compound
10 | ≥ 5.00 | ≥ 5.00 | ≥ 5.00 | ≥ 5.00 | ≥ 5.00 | ≥ 5.00 | ≥ 5.00 | ≥ 5.00 | ≥ 5.00 | CCCS(=O)(=O)Nc1ccc(F)c(C(=O)c2c[nH]c3ncc(-c4ccc(OCCCN5CCOCC5)nc4)cc23)c1F [P-2236, Propane-1-sulfonic acid (2,4-difluoro-3-{5-[6-(3-morpholin-4-yl-propoxy)-pyridin-3-yl]-1H-pyrrolo[2,3-b]pyridine-3-carbonyl}-phenyl)-amide]
11 | ≥ 5.00 | ≥ 5.00 | ≥ 5.00 | ≥ 5.00 | – | ≥ 5.00 | ≥ 5.00 | ≥ 5.00 | ≥ 5.00 | O=C(c1c(F)ccc(NS(=O)(=O)CC(F)(F)F)c1F)c1c[nH]c2nccc(Cl)c12 [P-2338, 2,2,2-Trifluoro-ethanesulfonic acid [3-(4-chloro-1H-pyrrolo[2,3-b]pyridine-3-carbonyl)-2,4-difluoro-phenyl]-amide]
12 | ≥ 5.00 | ≥ 5.00 | ≥ 5.00 | ≥ 5.00 | ≥ 5.00 | ≥ 5.00 | – | ≥ 5.00 | ≥ 5.00 | O=C(c1c(F)ccc(NS(=O)(=O)CC(F)(F)F)c1F)c1c[nH]c2ncc(Cl)cc12 [P-2339, 2,2,2-Trifluoro-ethanesulfonic acid [3-(5-chloro-1H-pyrrolo[2,3-b]pyridine-3-carbonyl)-2,4-difluoro-phenyl]-amide]
13 | ≥ 5.00 | ≥ 5.00 | ≥ 5.00 | ≥ 5.00 | – | ≥ 5.00 | ≥ 5.00 | ≥ 5.00 | ≥ 5.00 | COc1cnc2[nH]cc(C(=O)c3c(F)ccc(NS(=O)(=O)C(F)(F)F)c3F)c2c1 [P-2347, N-[2,4-Difluoro-3-(5-methoxy-1H-pyrrolo[2,3-b]pyridine-3-carbonyl)-phenyl]-C,C,C-trifluoro-methanesulfonamide]
14 | ≥ 5.00 | ≥ 5.00 | ≥ 5.00 | ≥ 5.00 | – | ≥ 5.00 | ≥ 5.00 | ≥ 5.00 | ≥ 5.00 | O=C(c1c(F)ccc(NS(=O)(=O)N2CCCC2)c1F)c1c[nH]c2ncc(Cl)cc12 [P-2375, Pyrrolidine-1-sulfonic acid [3-(5-chloro-1H-pyrrolo[2,3-b]pyridine-3-carbonyl)-2,4-difluoro-phenyl]-amide]
